Measurements published in patent US20150266836A1, “AROMATIC SULFIDE COMPOUNDS AND METHODS AND USE THEREOF” (The Regents of the University of California, priority 2014, published 2015).

tested on: MCF-7 breast cancer cell line; assay: Proliferation-based anti-breast-cancer assay (CyQUANT Cell Proliferation Assay) against MCF-7 cells; details: Homo sapiens, MCF7, dose-response, 10 concentrations serially diluted from 120 μM, DMEM 2% FBS, normalized to DMSO vehicle, read-out: inhibition of MCF-7 cell proliferation, EC50
Protocol: Biological experiments were performed according to a modified procedure by Sigman et al.
MCF-7 cells were maintained in DMEM/high glucose supplemented with 10% FBS, L-glutamine, and penicillin/streptomycin. Experiments with MCF-7 cells were performed in DMEM/high glucose supplemented with 2% FBS, L-glutamine, and penicillin/streptomycin. MCF-10A cells were maintained in standard medium according to a modified recipe by Brugge et al. DMEM/F12 supplemented with 5% horse serum, 10 μg/mL of human insulin, 0.5 μg/mL of hydrocortisone, 10 ng/mL of EGF, 100 ng/mL of cholera toxin, and penicillin/streptomycin. Experiments with MCF-10A cells were performed in the same medium.
MCF-7 cells were centrifuged in 1×PBS for 20 min, and then the pellet was resuspended in DMEM supplemented with 10% FBS and filtered through a 40 μm nylon cell strainer (Fisher Scientific) to prevent clumping. The cells were seeded at 1500 cells per well in 96-well flat bottom plates suitable for fluorimetry, using 175 μL per well of DMEM supplemented with 10% FBS, and grown for 24 h in 5% CO2 at 37° C. The compounds (including the faslodex positive control) were dissolved in molecular biology grade DMSO to achieve a 3.5 mM stock solution and then sterile filtered through a 0.45 μm PVDF syringe filter unit (Fisher Scientific). The 3.5 mM stock solutions were subsequently diluted to a final concentration of 10 μM in DMEM supplemented with 2% FBS. Additionally, the corresponding DMSO vehicle control was diluted using the same medium.
After 24 h of growth, the cells were treated by replacing the normal media with fresh media containing the individual compounds or vehicle control (day 0). The outer rows of wells were not used to eliminate the possibility of effects due to evaporation of media. The cells were incubated with compound for 48 h and then treated again by aspirating the media and adding fresh media containing the compounds and controls (day 2). This procedure was repeated after an additional 48 h (day 4). After incubating a final 24 h, the 96-well plates were rinsed with 1×PBS, blotted dry, and then frozen at −78° C. overnight (day 5). On day 6, cell proliferation was measured using the fluorescence-based CyQUANT Cell Proliferation Assay Kit (Invitrogen).
Fluorimetry analysis was performed according to a modified procedure by McGowan et al. Cells were stained with 200 μL/well of 1× CyQUANT GR dye in cell lysis buffer for 10 min in the dark at room temperature and quantified by fluorimetry at 535 nm with 485 nm excitation. The fluorescence values were normalized to the DMSO vehicle control. The normalized values were plotted as an average±standard deviation of 6 wells per compound.
MCF-7 cells were centrifuged in 1×PBS for 20 min, and then the pellet was resuspended in DMEM supplemented with 10% FBS and filtered through a 40 μm nylon cell strainer (Fisher Scientific) to prevent clumping. The cells were seeded at 1500 cells per well in 96-well flat bottom plates suitable for fluorimetry, using 175 μL, per well of DMEM supplemented with 10% FBS, and grown for 24 h in 5% CO2 at 37° C. The compounds 19 and 25 were dissolved in molecular biology grade DMSO to achieve a 42 mM stock and then sterile filtered through a 0.45 μm PVDF syringe filter unit (Fisher Scientific). […]
Addition of compounds was performed as specified above for days 0-6. […] The fluorescence values were normalized to the DMSO vehicle controls corresponding to each concentration.

| SMILES | EC50 [µM] |
| --- | --- |
| c1ccc(Sc2nnc(-c3ccccc3)o2)cc1 [Compound 19, 2-Phenyl-5-(phenylthio)-1,3,4-oxadiazole] | 7.9 |
| COc1cc(Sc2nc3ccccc3o2)cc(OC)c1OC [Compound 25, 2-(3,4,5-Trimethoxyphenylthio)benzoxazole] | 4.5 |

same assay, conditions: compounds at 10 μM, compared to faslodex (ICI 182,780), FIG. 1

| SMILES | anticancer activity: inhibition of MCF-7 cell proliferation (result in words) |
| --- | --- |
| c1ccc(Sc2nc3ccccc3s2)cc1 [Compound 15, 2-Phenylthiobenzothiazole] | inactive |
| c1ccc(Sc2nc3ccccc3o2)cc1 [Compound 16, 2-Phenylthiobenzoxazole] | inactive |
| COc1cc(Sc2nnc(-c3ccccc3)o2)cc(OC)c1OC [Compound 27, 2-Phenyl-5-(3,4,5-trimethoxyphenylthio)-1,3,4-oxadiazole] | performed poorly |

tested on: not given; assay: not given; details: not given

| SMILES | melting point [°C] |
| --- | --- |
| Fc1c(F)c(F)c(Sc2ccccc2)c(F)c1F [Compound 11, (Perfluorophenyl)(phenyl)sulfane] | 45 to 48 |
| c1ccc(Sc2nnnn2-c2ccccc2)cc1 [Compound 18, 1-Phenyl-5-(phenylthio)-1H-tetrazole] | 129 to 133 |
| N#Cc1cccc(Sc2ncccn2)c1 [Compound 23, 3-(Pyrimidin-2-ylthio)benzonitrile] | 71 to 73 |
| COc1cc(Sc2ncccn2)cc(OC)c1OC [Compound 24, 2-(3,4,5-Trimethoxyphenylthio)pyrimidine] | 103 to 104 |
| COc1cc(Sc2nc3ccccc3o2)cc(OC)c1OC [Compound 25, 2-(3,4,5-Trimethoxyphenylthio)benzoxazole] | 129 to 130 |
| COc1cc(Sc2nnnn2-c2ccccc2)cc(OC)c1OC [Compound 26, 1-Phenyl-5-(3,4,5-trimethoxyphenylthio)-1H-tetrazole] | 110 to 111 |
| COc1cc(Sc2nnc(-c3ccccc3)o2)cc(OC)c1OC [Compound 27, 2-Phenyl-5-(3,4,5-trimethoxyphenylthio)-1,3,4-oxadiazole] | 142 |
